Molecules are shown by their SMILES. Calls of active or inactive are those of the source. The calls are words filed in the database; no cut-off is given here.

In series [1] the target is T1, Leukotriene A-4 hydrolase (Homo sapiens, UniProt P09960).
T1 sequence (P09960 whole entry): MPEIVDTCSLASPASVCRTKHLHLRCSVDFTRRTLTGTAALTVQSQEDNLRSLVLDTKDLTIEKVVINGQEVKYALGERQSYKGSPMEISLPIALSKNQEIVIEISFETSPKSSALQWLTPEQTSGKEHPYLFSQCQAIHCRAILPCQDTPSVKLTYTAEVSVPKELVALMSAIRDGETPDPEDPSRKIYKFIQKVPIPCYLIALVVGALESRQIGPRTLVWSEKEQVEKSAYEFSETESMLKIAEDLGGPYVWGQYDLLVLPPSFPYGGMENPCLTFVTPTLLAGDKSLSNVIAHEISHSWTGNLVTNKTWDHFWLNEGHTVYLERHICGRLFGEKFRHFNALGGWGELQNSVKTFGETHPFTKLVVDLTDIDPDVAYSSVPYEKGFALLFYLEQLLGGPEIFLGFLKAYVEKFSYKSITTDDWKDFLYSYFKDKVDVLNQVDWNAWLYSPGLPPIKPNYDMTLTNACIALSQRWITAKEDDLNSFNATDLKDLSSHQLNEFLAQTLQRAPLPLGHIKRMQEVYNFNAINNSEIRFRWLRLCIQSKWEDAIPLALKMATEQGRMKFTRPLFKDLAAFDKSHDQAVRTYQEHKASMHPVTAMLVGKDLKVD
The series is described as follows: Inhibition of recombinant human LTA4H aminopeptidase activity expressed in Escherichia coli BL21 (DE3) pLysS assessed as formation of p-NA from Ala-p-NA preincubated for 10 mins followed by substrate addition measured after 10 mins. Type of series: ADME.

The target of series [2] is T1, Leukotriene A-4 hydrolase. The series is described as follows: Inhibition of recombinant human LTA4H Epoxide Hydrolase expressed in Escherichia coli BL21 (DE3) pLysS preincubated for 10 mins followed by addition of LTA4 as substrate measured after 15 mins by reverse-phase HPLC analysis.
The target in series [3] is T2, Leukotriene A-4 hydrolase (LTA4H) aminopeptidase activity (Homo sapiens, UniProt P09960).
T2 sequence (P09960 whole entry): T1 sequence (P09960 whole entry)
The series is described as follows: Inhibition of recombinant human LTA4H aminopeptidase activity expressed in Escherichia coli BL21 (DE3) pLysS assessed as formation of p-NA from Ala-p-NA at 10 uM preincubated for 10 mins followed by substrate addition measured after 10 mins.

The target of series [4] is T3, Leukotriene A-4 hydrolase (Homo sapiens) (UniProt P09960).
T3 sequence (whole entry): T1 sequence (P09960 whole entry)
Description: Binding affinity to recombinant human LTA4H hydrolase assessed as change in melting temperature at 50 uM by SYPRO orange dye-based thermofluor assay

For series [5], the target named is T3, Leukotriene A-4 hydrolase (Homo sapiens). The conditions noted are these: at 10 µM.
Description: Inhibition of recombinant human LTA4H Epoxide Hydrolase expressed in Escherichia coli BL21 (DE3) pLysS at 10 uM preincubated for 10 mins followed by addition of LTA4 as substrate measured after 15 mins by reverse-phase HPLC analysis
The target is the same in series [6]. The conditions noted are these: 10 uM.
Series [7] relates to Mus musculus. Nature of the series: Anti-inflammatory activity in LPS-induced C57BL/6 mouse model of acute lung injury assessed as reduction in pathological changes at 25 mg/kg, ip and co-treated with ((2S,3R)-3-amino-2-hydroxy-4-phenylbutanamido)-4-methylpentanoic acid pretreated for 1 hr followed LPS challenge measured after 24 hrs by hematoxylin and eosin staining based microscopy. Type of series: functional, organism-based.

For series [8], the species on record is Mus musculus. As to conditions: C57BL/6, at 25 mg/kg.
Description: Inhibition of LTB4 biosynthesis in LPS-induced C57BL/6 mouse model of acute lung injury BLAF at 25 mg/kg, ip by ELISA
The subject of series [9] is Mus musculus. Nature of the series: Anti-inflammatory activity in BLM-induced C57BL/6 mouse model of acute lung neutrophilic inflammation assessed as reduction in number of neutrophils in BALF at 30 mg/kg, ip qd for 7 days post BLM challenge measured on day 7. Type of series: functional, organism-based.

By IC50 is commonly meant the midpoint of a concentration-inhibition curve. As usually defined, the inhibition is the relative decrease from the control value, in per cent. Broadly, the ΔTm is the shift of the melting midpoint relative to a reference. Take `Cn1cc(CNCC2CCN(c3ncc(C(=O)NO)cn3)CC2)c2ccccc21` [QUISINOSTAT]: the IC50 in series [1] and in series [2] was greater than 10 µM in each case. The inhibition at 10 min, 10 µM in series [3] (probe Ala-p-NA) was greater than 50%. For the same compound, in series [4], the shift in melting temperature (ΔTm) worked out at 0.52 °C. Also, the inhibition in series [5] is greater than 50%.
Turning to `O=C(CCCCCCC(=O)Nc1ccc([C@H]2O[C@@H](CSc3nc(-c4ccccc4)c(-c4ccccc4)o3)C[C@@H](c3ccc(CO)cc3)O2)cc1)NO` [TUBACIN], the IC50 in series [1] and in [2] was greater than 10 µM in each case. Also, in series [3] (probe Ala-p-NA), the inhibition at 10 min, 10 µM is greater than 50%. In series [4], the ΔTm was 0.34 °C. The inhibition in series [5] is greater than 50%.
Take `Cc1[nH]c2ccccc2c1CCNCc1ccc(/C=C/C(=O)NO)cc1` [PANOBINOSTAT]: the IC50 in series [1] and in [2] was greater than 10 µM in each case. In addition, the inhibition at 10 min, 10 µM in series [3] (probe Ala-p-NA) was greater than 50%. Moreover, in series [4], the ΔTm turned out to be 0.12 °C. Besides, the inhibition in series [5] is greater than 50%.
In the case of `CCN(CC)Cc1ccc2cc(COC(=O)Nc3ccc(C(=O)NO)cc3)ccc2c1` [GIVINOSTAT], the IC50 in [1] and in series [2] was greater than 10 µM in each case. Besides, the inhibition at 10 min, 10 µM in series [3] (probe Ala-p-NA) was greater than 50%. Further, the ΔTm in series [4] came out at 0.19 °C. Also, the inhibition in series [5] was greater than 50%.
Consider `CN(C)Cc1c(C(=O)NCCOc2ccc(C(=O)NO)cc2)oc2ccccc12` [ABEXINOSTAT], for which the IC50 in [1] and in series [2] was greater than 10 µM throughout. In addition, in [3] (probe Ala-p-NA), the inhibition at 10 min, 10 µM was greater than 50%. Moreover, the ΔTm in series [4] is 0.24 °C. In addition, the inhibition in series [5] is greater than 50%.
For the compound `CN(CCCOc1ccc(Cc2ccccc2)cc1)CCC(=O)O`, the shift in melting temperature (ΔTm) in [6] turned out to be 2.95 °C.
As to `CC(C)C[C@H](NC(=O)[C@@H](O)[C@H](N)Cc1ccccc1)C(=O)O`, the outcome in the series with Mus musculus [7] was Active. Also, the inhibition entry in the series listed under Mus musculus [8] is “Active”.
In the case of `O=C(CCCCCN1C(=O)c2cccc3cccc(c23)C1=O)NO`, the half-inhibitory concentration (IC50) is 4.4 µM in series [1] and greater than 10 µM in [2]. The inhibition at 10 min, 10 µM in [3] is greater than 50%. The ΔTm in series [4] was -0.68 °C. In series [5], the inhibition is greater than 50%.
In the case of `O=C(/C=C/c1cccc(S(=O)(=O)Nc2ccccc2)c1)NO` [BELINOSTAT], the IC50 in series [1] and in [2] was greater than 10 µM in each case. Further, the inhibition at 10 min, 10 µM in [3] (probe Ala-p-NA) is greater than 50%. Moreover, in series [4], the ΔTm was 0.11 °C. Moreover, in series [5], the inhibition is greater than 50%.
On to `CC(/C=C/C(=O)NO)=C\[C@@H](C)C(=O)c1ccc(N(C)C)cc1` [TRICHOSTATIN], for which the IC50 in [1] and in series [2] was greater than 10 µM each time. For the same compound, the inhibition at 10 min, 10 µM in series [3] (probe Ala-p-NA) was greater than 50%. In addition, the ΔTm in series [4] was 0.17 °C. In addition, the inhibition in series [5] was greater than 50%.
On to `CCCC(CCC)C(=O)O` [VALPROATE SODIUM], for which the IC50 in series [1] and in [2] was greater than 10 µM throughout. For the same compound, the inhibition at 10 min, 10 µM in [3] (probe Ala-p-NA) was greater than 50%. In addition, the ΔTm in series [4] was 0.36 °C. The same compound registered an inhibition in series [5] greater than 50%.
Regarding `COC(=O)c1ccc2c(c1)NC(=O)/C2=C(\Nc1ccc(N(C)C(=O)CN2CCN(C)CC2)cc1)c1ccccc1`, the outcome in the series with Mus musculus [9] was Active.
With `O=C(CCCCCCNC(=O)c1cnc(N(c2ccccc2)c2ccccc2)nc1)NO` [RICOLINOSTAT], the IC50 in series [1] and in series [2] was greater than 10 µM throughout. Further, the inhibition at 10 min, 10 µM in [3] (probe Ala-p-NA) is greater than 50%. Further, in [4], the ΔTm is 0.55 °C. In series [5], this compound came in with an inhibition greater than 50%.
Turning to `Nc1ccccc1NC(=O)c1ccc(CNc2nccc(-c3cccnc3)n2)cc1` [MOCETINOSTAT], the half-maximal inhibitory concentration (IC50) in series [1] and in series [2] was greater than 10 µM in each case. Also, the inhibition at 10 min, 10 µM in series [3] (probe Ala-p-NA) was greater than 50%. Also, the ΔTm in series [4] is -0.33 °C. The inhibition in series [5] is greater than 50%.
As to `CN(C)Cc1ccc(S(=O)(=O)n2ccc(/C=C/C(=O)NO)c2)cc1` [RESMINOSTAT], the IC50 in [1] and in series [2] was greater than 10 µM in each case. For the same compound, in series [3] (probe Ala-p-NA), the inhibition at 10 min, 10 µM was greater than 50%. Besides, the ΔTm in series [4] was determined as 0.44 °C. Further, the inhibition in [5] is greater than 50%.
Take `Nc1ccccc1NC(=O)c1ccc(CNC(=O)OCc2cccnc2)cc1` [ENTINOSTAT]: the IC50 in [1] and in [2] was greater than 10 µM throughout. Also, the inhibition at 10 min, 10 µM in series [3] (probe Ala-p-NA) was greater than 50%. Moreover, in series [4], the ΔTm worked out at 0.39 °C. This compound also gave an inhibition in series [5] greater than 50%.
For `C#Cc1cccc(Nc2ncnc3cc(OC)c(OCCCCCCC(=O)NO)cc23)c1` [CUDC-101], the IC50 in series [1] and in series [2] was greater than 10 µM throughout. The inhibition at 10 min, 10 µM in series [3] is greater than 50%. Besides, in series [4], the ΔTm turned out to be 0.3 °C. In series [5], the inhibition is greater than 50%.
For `CCCCc1nc2cc(/C=C/C(=O)NO)ccc2n1CCN(CC)CC` [PRACINOSTAT], the IC50 in [1] and in series [2] was greater than 10 µM each time. Moreover, the inhibition at 10 min, 10 µM in series [3] is greater than 50%. Further, the ΔTm in series [4] was determined as 0.31 °C. For the same compound, the inhibition in series [5] is greater than 50%.

(Values after ChEMBL document CHEMBL4007425, “Drug Repurposing of Histone Deacetylase Inhibitors That Alleviate Neutrophilic Inflammation in Acute Lung Injury and Idiopathic Pulmonary Fibrosis via Inhibiting Leukotriene A4 Hydrolase and Blocking LTB4 Biosynthesis” (J Med Chem, 2017).)
